Tested on: MV-4-11 cells
Test: Gene expression microarray analysis (Affymetrix PrimeView) and GSEA
Assay type: cell-based, human
Design: RFU PODN (11730768_x_at) / Fold change /veh PODN (11730768_x_at) / RFU LINC00158 (11744669_a_at) / Fold change /veh LINC00158 (11744669_a_at) / RFU DUSP10 (11751237_a_at) / Fold change /veh DUSP10 (11751237_a_at) / RFU ID3 (11757404_x_at) / Fold change /veh ID3 (11757404_x_at) / RFU PLEKHG5 (11737974_s_at) / Fold change /veh PLEKHG5 (11737974_s_at) / RFU LRRC4B (11730491_at) / Fold change /veh LRRC4B (11730491_at) / RFU GIMAP4 (11747438_a_at) / Fold change /veh GIMAP4 (11747438_a_at) / RFU KRT8 (11758183_x_at) / Fold change /veh KRT8 (11758183_x_at) / RFU CNN1 (11734310_a_at) / Fold change /veh CNN1 (11734310_a_at) / RFU VPS37D (11726825_at) / Fold change /veh VPS37D (11726825_at) / RFU C10orf10 (11716522_x_at) / Fold change /veh C10orf10 (11716522_x_at) / RFU KIR2DL2 /// KIR2DL4 /// KIR2DL5A /// KIR2DL5B /// KIR2DS1 /// KIR2DS2 /// KIR2DS3 /// KIR2DS4 /// KIR3DL3 /// KIR3DL3 /// KIR3DS1 (11738374_at) / Fold change /veh KIR2DL2 /// KIR2DL4 /// KIR2DL5A /// KIR2DL5B /// KIR2DS1 /// KIR2DS2 /// KIR2DS3 /// KIR2DS4 /// KIR3DL3 /// KIR3DL3 /// KIR3DS1 (11738374_at) / RFU C1QL1 (11718748_at) / Fold change /veh C1QL1 (11718748_at) / RFU TMPRSS4 (11747572_a_at) / Fold change /veh TMPRSS4 (11747572_a_at) / RFU HAMP (11756126_x_at) / Fold change /veh HAMP (11756126_x_at) / RFU RNFT2 (11725882_a_at) / Fold change /veh RNFT2 (11725882_a_at) / RFU NR4A2 (11747474_a_at) / Fold change /veh NR4A2 (11747474_a_at) / RFU ABCC12 (11746883_a_at) / Fold change /veh ABCC12 (11746883_a_at) / RFU TMEM136 (11760407_x_at) / Fold change /veh TMEM136 (11760407_x_at) / RFU CLDN22 /// WWC2 (11732394_at) / Fold change /veh CLDN22 /// WWC2 (11732394_at) / RFU HLA-DPB1 (11760878_x_at) / Fold change /veh HLA-DPB1 (11760878_x_at) / RFU SPINT1 (11716480_a_at) / Fold change /veh SPINT1 (11716480_a_at) / RFU GAP43 (11754022_s_at) / Fold change /veh GAP43 (11754022_s_at) / RFU A4GNT (11735810_at) / Fold change /veh A4GNT (11735810_at) / RFU PRB3 (11715151_x_at) / Fold change /veh PRB3 (11715151_x_at) / RFU TUBB4B (11761932_at) / Fold change /veh TUBB4B (11761932_at) / RFU CAPN14 (11732068_a_at) / Fold change /veh CAPN14 (11732068_a_at) / RFU TMCC2 (11721928_a_at) / Fold change /veh TMCC2 (11721928_a_at) / RFU IRGQ (11745062_a_at) / Fold change /veh IRGQ (11745062_a_at) / RFU FAM174B (11720279_a_at) / Fold change /veh FAM174B (11720279_a_at) / RFU TMPRSS4 (11748680_a_at) / Fold change /veh TMPRSS4 (11748680_a_at) / RFU FAM212B (11763350_a_at) / Fold change /veh FAM212B (11763350_a_at) / RFU PLEKHG5 (11743358_a_at) / Fold change /veh PLEKHG5 (11743358_a_at) / RFU ZSCAN30 (11745921_a_at) / Fold change /veh ZSCAN30 (11745921_a_at) / RFU CMKLR1 (11741424_a_at) / Fold change /veh CMKLR1 (11741424_a_at) / RFU LOC101060620 /// MAPK8IP1 (11723275_at) / Fold change /veh LOC101060620 /// MAPK8IP1 (11723275_at) / RFU SPTSSB (11747773_x_at) / Fold change /veh SPTSSB (11747773_x_at) / RFU PRSS12 (11739890_at) / Fold change /veh PRSS12 (11739890_at) / RFU BIN1 (11741810_x_at) / Fold change /veh BIN1 (11741810_x_at) / RFU WNT11 (11732464_a_at) / Fold change /veh WNT11 (11732464_a_at) / RFU C10orf10 (11716521_a_at) / Fold change /veh C10orf10 (11716521_a_at) / RFU C5orf56 (11738089_at) / Fold change /veh C5orf56 (11738089_at) / RFU CYB561 (11721691_x_at) / Fold change /veh CYB561 (11721691_x_at) / RFU ANKRD19P (11752326_a_at) / Fold change /veh ANKRD19P (11752326_a_at) / RFU OR2T12 /// OR2T33 /// OR2T8 (11738714_s_at) / Fold change /veh OR2T12 /// OR2T33 /// OR2T8 (11738714_s_at) / RFU VCAN (11748164_a_at) / Fold change /veh VCAN (11748164_a_at) / RFU JSRP1 (11732532_at) / Fold change /veh JSRP1 (11732532_at) / RFU KRTAP10-11 (11738290_x_at) / Fold change /veh KRTAP10-11 (11738290_x_at) / RFU MYO3A (11730013_a_at) / Fold change /veh MYO3A (11730013_a_at) / RFU EBF3 (11725865_a_at) / Fold change /veh EBF3 (11725865_a_at) / RFU CAMK2N1 (11719241_x_at) / Fold change /veh CAMK2N1 (11719241_x_at) / RFU C5orf56 (11738088_a_at) / Fold change /veh C5orf56 (11738088_a_at) / RFU OLFML3 (11715873_a_at) / Fold change /veh OLFML3 (11715873_a_at) / RFU LOC100653217 /// NTM (11731650_a_at) / Fold change /veh LOC100653217 /// NTM (11731650_a_at) / RFU MAPK11 (11762145_a_at) / Fold change /veh MAPK11 (11762145_a_at) / RFU FIZ1 (11724087_x_at) / Fold change /veh FIZ1 (11724087_x_at) / RFU OASL (11726364_x_at) / Fold change /veh OASL (11726364_x_at) / RFU SOX15 (11748057_x_at) / Fold change /veh SOX15 (11748057_x_at) / RFU CD79A (11719716_a_at) / Fold change /veh CD79A (11719716_a_at) / RFU HIST1H1D (11736915_at) / Fold change /veh HIST1H1D (11736915_at) / RFU CASKIN2 (11723855_a_at) / Fold change /veh CASKIN2 (11723855_a_at) / RFU LOC730098 (11760151_x_at) / Fold change /veh LOC730098 (11760151_x_at) / RFU OR4N2 (11742367_at) / Fold change /veh OR4N2 (11742367_at) / RFU PRRT2 (11749266_a_at) / Fold change /veh PRRT2 (11749266_a_at) / RFU SNX32 (11753110_a_at) / Fold change /veh SNX32 (11753110_a_at) / RFU CDHR5 (11726645_a_at) / Fold change /veh CDHR5 (11726645_a_at) / RFU RCAN1 (11760418_a_at) / Fold change /veh RCAN1 (11760418_a_at) / RFU FAM167A (11723789_a_at) / Fold change /veh FAM167A (11723789_a_at) / RFU FAM26E (11764081_at) / Fold change /veh FAM26E (11764081_at) / RFU ISYNA1 (11749810_s_at) / Fold change /veh ISYNA1 (11749810_s_at) / RFU ACY1 (11761880_at) / Fold change /veh ACY1 (11761880_at) / RFU 11764098_at / Fold change /veh 11764098_at / RFU SAMD14 (11745864_x_at) / Fold change /veh SAMD14 (11745864_x_at) / RFU NPB (11741838_a_at) / Fold change /veh NPB (11741838_a_at) / RFU TMPRSS6 (11731388_a_at) / Fold change /veh TMPRSS6 (11731388_a_at) / RFU KRTAP10-2 (11738614_at) / Fold change /veh KRTAP10-2 (11738614_at) / RFU ARHGAP8 /// PRR5-ARHGAP8 (11727945_x_at) / Fold change /veh ARHGAP8 /// PRR5-ARHGAP8 (11727945_x_at) / RFU KRTAP5-7 /// NADSYN1 (11734609_at) / Fold change /veh KRTAP5-7 /// NADSYN1 (11734609_at) / RFU RASL12 (11751679_a_at) / Fold change /veh RASL12 (11751679_a_at) / RFU CDKN2B (11736163_a_at) / Fold change /veh CDKN2B (11736163_a_at) / RFU PRF1 (11729649_at) / Fold change /veh PRF1 (11729649_at) / RFU, ZNF638 /// ZNF638-IT1 / Fold change vs veh, ZNF638 /// ZNF638-IT1 / RFU, PANK3 / Fold change vs veh, PANK3 / RFU, SH3YL1 / Fold change vs veh, SH3YL1 / RFU, ZEB2 / Fold change vs veh, ZEB2 / RFU, NRIP1 / Fold change vs veh, NRIP1 / RFU, PTTG1IP / Fold change vs veh, PTTG1IP / RFU, CAPN2 / Fold change vs veh, CAPN2 / RFU, MED14 / Fold change vs veh, MED14 / RFU, SNORA58 / Fold change vs veh, SNORA58 / RFU, C1orf63 / Fold change vs veh, C1orf63 / RFU, LRRFIP1 / Fold change vs veh, LRRFIP1 / RFU, NDUFAF7 / Fold change vs veh, NDUFAF7 / RFU, SLC12A2 / Fold change vs veh, SLC12A2 / RFU, IBTK / Fold change vs veh, IBTK / RFU, ESF1 / Fold change vs veh, ESF1 / Fold change vs veh, TMEM50B / RFU, TAOK1 / Fold change vs veh, TAOK1 / RFU, ACBD3 / Fold change vs veh, ACBD3 / RFU, TMA16 / Fold change vs veh, TMA16 / RFU, RWDD3 / Fold change vs veh, RWDD3 / RFU, BCAT1 / Fold change vs veh, BCAT1 / RFU, EDEM3 / Fold change vs veh, EDEM3 / RFU, TMEM33 / Fold change vs veh, TMEM33 / RFU, WDR75 / Fold change vs veh, WDR75 / RFU, AHCTF1 / Fold change vs veh, AHCTF1 / RFU, TFRC / Fold change vs veh, TFRC / RFU, ZDHHC17 / Fold change vs veh, ZDHHC17 / RFU, NOM1 / Fold change vs veh, NOM1 / RFU, ARL8B / Fold change vs veh, ARL8B / RFU, ZBTB11 / Fold change vs veh, ZBTB11 / RFU, TAMM41 / Fold change vs veh, TAMM41 / RFU, KIAA1704 /// LOC100996395 / Fold change vs veh, KIAA1704 /// LOC100996395 / RFU, ING1 / Fold change vs veh, ING1 / RFU, TRMT61B / Fold change vs veh, TRMT61B / RFU, FUBP3 / Fold change vs veh, FUBP3 / RFU, TP53 / Fold change vs veh, TP53 / RFU, TNKS2 / Fold change vs veh, TNKS2 / RFU, ZFP14 / Fold change vs veh, ZFP14 / RFU, ACTR2 / Fold change vs veh, ACTR2 / RFU, PPP3R1 / Fold change vs veh, PPP3R1 / RFU, PIK3R1 / Fold change vs veh, PIK3R1 / RFU, HNRNPA1 / Fold change vs veh, HNRNPA1 / RFU, RNF170 / Fold change vs veh, RNF170 / RFU, ZNF28 / Fold change vs veh, ZNF28 / RFU, RNGTT / Fold change vs veh, RNGTT / RFU, OGT / Fold change vs veh, OGT / RFU, BRD1 / Fold change vs veh, BRD1 / RFU, MARS / Fold change vs veh, MARS / RFU, ZNF655 / Fold change vs veh, ZNF655 / RFU, FAHD1 / Fold change vs veh, FAHD1 / RFU, BDP1 / Fold change vs veh, BDP1 / RFU, LRRCC1 / Fold change vs veh, LRRCC1 / RFU, ARID1A / Fold change vs veh, ARID1A / RFU, ZNF146 / Fold change vs veh, ZNF146 / RFU, ZNF330 / Fold change vs veh, ZNF330 / RFU, GPN3 / Fold change vs veh, GPN3 / RFU, C9orf123 / Fold change vs veh, C9orf123 / RFU, N4BP2L2 / Fold change vs veh, N4BP2L2 / RFU, ARFIP1 / Fold change vs veh, ARFIP1 / RFU, FAM179B / Fold change vs veh, FAM179B / RFU, BCL10 / Fold change vs veh, BCL10 / RFU, UHRF1BP1L / Fold change vs veh, UHRF1BP1L / RFU, BET1 / Fold change vs veh, BET1 / RFU, CNOT2 / Fold change vs veh, CNOT2 / RFU, ZNF268 / Fold change vs veh, ZNF268 / Fold change vs veh, ZNF507 / RFU, DGCR2 / Fold change vs veh, DGCR2 / RFU, WDSUB1 / Fold change vs veh, WDSUB1 / Fold change vs veh, HSP90B1 /// MIR3652 / RFU, ADSS / Fold change vs veh, ADSS / RFU, GK / Fold change vs veh, GK / RFU, ZNF148 / Fold change vs veh, ZNF148 / RFU, TAF9 / Fold change vs veh, TAF9 / RFU, SLC1A5 / Fold change vs veh, SLC1A5 / RFU, SLMO2 / Fold change vs veh, SLMO2 / RFU, ABCC4 / Fold change vs veh, ABCC4 / RFU, LOC101060439 /// RAP1B / Fold change vs veh, LOC101060439 /// RAP1B / RFU, RFX7 / Fold change vs veh, RFX7 / RFU, GTPBP10 / Fold change vs veh, GTPBP10 / RFU, CNEP1R1 / Fold change vs veh, CNEP1R1 / RFU, BIVM-ERCC5 /// ERCC5 / Fold change vs veh, BIVM-ERCC5 /// ERCC5 / RFU, ILF3 / Fold change vs veh, ILF3 / RFU 11762660_at / Fold change /veh 11762660_at / RFU VCAN (11757783_s_at) / Fold change /veh VCAN (11757783_s_at) / RFU DDX43 (11728927_at) / Fold change /veh DDX43 (11728927_at) / RFU KRT8 (11758188_x_at) / Fold change /veh KRT8 (11758188_x_at) / RFU NKD1 (11759106_at) / Fold change /veh NKD1 (11759106_at) / RFU SRD5A1 (11742802_a_at) / Fold change /veh SRD5A1 (11742802_a_at) / RFU TPSAB1 /// TPSB2 (11721975_s_at) / Fold change /veh TPSAB1 /// TPSB2 (11721975_s_at) / RFU GSTM3 (11746129_a_at) / Fold change /veh GSTM3 (11746129_a_at) / RFU IL23R (11737362_x_at) / Fold change /veh IL23R (11737362_x_at) / RFU TMEM51 (11727254_a_at) / Fold change /veh TMEM51 (11727254_a_at) / RFU PIWIL2 (11732686_x_at) / Fold change /veh PIWIL2 (11732686_x_at) / RFU ORM1 (11744905_x_at) / Fold change /veh ORM1 (11744905_x_at) / RFU CCDC152 (11743942_at) / Fold change /veh CCDC152 (11743942_at) / RFU ECM1 (11717891_a_at) / Fold change /veh ECM1 (11717891_a_at) / RFU IL23R (11748794_a_at) / Fold change /veh IL23R (11748794_a_at) / RFU TNFAIP8L3 (11732012_x_at) / Fold change /veh TNFAIP8L3 (11732012_x_at) / RFU MBOAT4 (11741988_at) / Fold change /veh MBOAT4 (11741988_at) / RFU 11764193_at / Fold change /veh 11764193_at / RFU TMEM53 (11763286_at) / Fold change /veh TMEM53 (11763286_at) / RFU MAGEB2 (11727129_at) / Fold change /veh MAGEB2 (11727129_at) / RFU TMEM200A (11744735_a_at) / Fold change /veh TMEM200A (11744735_a_at) / RFU CCDC152 (11751479_a_at) / Fold change /veh CCDC152 (11751479_a_at) / RFU FAM211A (11726209_a_at) / Fold change /veh FAM211A (11726209_a_at) / RFU RGS16 (11746705_a_at) / Fold change /veh RGS16 (11746705_a_at) / RFU VCAN (11755009_s_at) / Fold change /veh VCAN (11755009_s_at) / RFU RHOB (11743442_s_at) / Fold change /veh RHOB (11743442_s_at) / RFU RGS16 (11720943_a_at) / Fold change /veh RGS16 (11720943_a_at) / RFU RGS16 (11720944_at) / Fold change /veh RGS16 (11720944_at) / RFU, VPS4B / Fold change vs veh, VPS4B / RFU, CREB1 / Fold change vs veh, CREB1 / RFU, DNAJC13 / Fold change vs veh, DNAJC13 / RFU, GNAQ / Fold change vs veh, GNAQ / RFU, CDK5R1 / Fold change vs veh, CDK5R1 / RFU, ZRANB3 / Fold change vs veh, ZRANB3 / RFU, CUL4A / Fold change vs veh, CUL4A / RFU, CCNY / Fold change vs veh, CCNY / RFU, UFL1 / Fold change vs veh, UFL1 / RFU, COG3 / Fold change vs veh, COG3 / RFU, DIAPH2 / Fold change vs veh, DIAPH2 / RFU, SKA2 / Fold change vs veh, SKA2 / RFU, AFF3 / Fold change vs veh, AFF3 / RFU, LMF1 / Fold change vs veh, LMF1 / RFU, IPO11 / Fold change vs veh, IPO11 / RFU, DFFB / Fold change vs veh, DFFB / RFU, FOXP1 / Fold change vs veh, FOXP1 / RFU, CARD8 / Fold change vs veh, CARD8 / RFU, STRN3 / Fold change vs veh, STRN3 / RFU, ADK / Fold change vs veh, ADK / RFU, RASSF2 / Fold change vs veh, RASSF2 / RFU, WIPF1 / Fold change vs veh, WIPF1 / RFU, LARP1B / Fold change vs veh, LARP1B / RFU, RASA1 / Fold change vs veh, RASA1 / RFU, RB1 / Fold change vs veh, RB1 / RFU, PPFIA1 / Fold change vs veh, PPFIA1 / RFU, MAT2A / Fold change vs veh, MAT2A / RFU, CCT5 / Fold change vs veh, CCT5 / RFU, WDR92 / Fold change vs veh, WDR92 / RFU, CUX1 / Fold change vs veh, CUX1 / RFU, TTC7A / Fold change vs veh, TTC7A / RFU, TMEM135 / Fold change vs veh, TMEM135 / RFU, DEPTOR / Fold change vs veh, DEPTOR / RFU, CPM / Fold change vs veh, CPM / RFU, DNAJB6 / Fold change vs veh, DNAJB6 / RFU, CACNA2D3 / Fold change vs veh, CACNA2D3 / RFU, DTX4 / Fold change vs veh, DTX4 / RFU, TFCP2 / Fold change vs veh, TFCP2 / RFU, GMCL1 /// GMCL1P1 / Fold change vs veh, GMCL1 /// GMCL1P1 / RFU, AEBP2 / Fold change vs veh, AEBP2 / RFU, SNHG1 /// SNORD22 /// SNORD25 /// SNORD26 /// SNORD27 /// SNORD28 /// SNORD29 /// SNORD31 / Fold change vs veh, SNHG1 /// SNORD22 /// SNORD25 /// SNORD26 /// SNORD27 /// SNORD28 /// SNORD29 /// SNORD31 / Fold change (Aza/veh), C12orf56 (ProbeSet 11735607_a_at) / Fold change (ACY-1035/veh), C12orf56 (ProbeSet 11735607_a_at) / Fold change (Aza/veh), FGFR1OP (ProbeSet 11751329_s_at) / Fold change (ACY-1035/veh), FGFR1OP (ProbeSet 11751329_s_at) / Fold change (Aza/veh), VPS36 (ProbeSet 11739960_a_at) / Fold change (ACY-1035/veh), VPS36 (ProbeSet 11739960_a_at) / RFU SYPL1 (11715823_x_at) / Fold change /veh SYPL1 (11715823_x_at) / RFU IGFBP7 (11715501_s_at) / Fold change /veh IGFBP7 (11715501_s_at) / RFU REEP3 (11722064_at) / Fold change /veh REEP3 (11722064_at) / RFU IGLL1 (11728026_x_at) / Fold change /veh IGLL1 (11728026_x_at): dose or concentration left out as unconfirmed
Conditions: MV-4-11 cells, 48 hours

Q: With `Nc1ccc(-c2cccs2)cc1NC(=O)c1ccc2c(c1)cc(C1CC1)n2CCN1CCOCC1` [ACY-1035] as the compound, how does the “RFU CAPN14 (11732068_a_at)” value read?
A: 10.99 RFU
